In article PMC6680840 (Molecules, 2019):
“Also recorded” adds a separate entry of the source.

How the values were obtained:
[1] = system: SH-SY5Y neuroblastoma cells; experiment: Cell viability (cytotoxicity) MTT assay; format: cell-based; conditions: tested concentrations up to 200 μM
Procedure: (§1) The MTT method was used to test the cytotoxicity and neuroprotective activity evaluation of compounds. The detailed procedure was included in Supplementary Materials. […]
42 and ThT; in the presence of Aβ1–42 and THT but no inhibitors; and the blanks […]
SH-SY5Y cells were inoculated into 96-well plates, and each well was seeded with […]. After incubation for 24 h, the medium was removed and replaced with 100 µL medium containing the different concentrations of tested compounds for 24 h, and then incubated with 10 µL of 3-(4,5-dimethylthiazol-2-yl)-2,5-diphenyltetrazolium bromide (MTT) at 37 °C for 3 h. In this step, 100 µL DMSO was added to dissolve the […]
(1 picture or pasted object on this page, not shown here) […]
(§2) formazan crystals. The formazan dye product was measured by the absorbance at 490 nm on a Tecan Spark multimode microplate reader (Tecan, Switzerland).
(§3) Neuroprotective activity assay
SH-SY5Y cells were maintained at 37 °C in a humidified atmosphere containing 5% CO2. Cells were seeded into multi-well plates at a density of 2~2.5 × 10^5 cells/mL in DMEM medium, supplemented with 10% heat-inactivated bovine calf serum (Gibco, South America Origin). Experiments were carried out in 24 h after cells were seeded. […]
Th e compounds were first dissolved with DMSO and then diluted with DMEM medium. […]

[2] = biological target: T1, Aβ1-42 aggregation (Homo sapiens, UniProt P05067); experiment: Inhibition of Aβ1-42 aggregation, thioflavin T (ThT) method; format: biochemical; conditions: for inhibitory activity against Aβ1-42 aggregation (in words): 1 to 10 μM; for inhibition ratio towards Aβ1-42 aggregation: at 10 μM
T1 construct: pre-treated Aβ1–42 (GL Biochem Ltd); purchased GL Biochem Ltd, shanghai, China
T1 sequence (P05067 672-713): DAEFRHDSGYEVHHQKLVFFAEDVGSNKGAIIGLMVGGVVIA
Procedure: The ThT-based fluorometric assay [54] was performed for the determination of compounds’ anti-Aβ1–42 aggregation potency.
Determination of the inhibitory potency on Aβ1–42 aggregation
1,1,1,3,3,3-hexafluoro-2-propanol (HFIP) pre-treated Aβ1–42 (GL Biochem Ltd, shanghai, China) was dissolved in DMSO to make a 200 μM stock solution. The stock solution was centrifuged at the speed of 13,500 rpm for 10 min. The above supernatant was used for further experiments. The compounds for testing were dissolved in DMSO at concentrations of 0.8 mM. A screening assay for the compounds to inhibit Aβ aggregation was performed by measuring ThT fluorescence emission.
μL) and 2 μL of 200 μM Aβ1–42 were added into 76 μL of phosphate-bufered saline (PBS at pH 7.4) in a 96-well microtiter plate. After incubation for 24 h at room temperature, 80 μL of 5 μM ThT solution (in 50 mM glycine-NaOH at pH 8.5) was added to the reaction solution. Fluorescence emission was measured at 490 nm with an excitation wavelength of 450 nm on a Tecan Spark multimode microplate reader. The fluorescence intensities were compared and the % inhibition was calculated by the following equation: 100 − [(Fi − Fb)/(Fo − Fb) × 100] where Fi, Fo and Fb are the fluorescence intensities obtained for Aβ aggregation in the presence of inhibitors, A β1– 42 and ThT; in the presence of Aβ1–42 and THT but no inhibitors; and the blanks

[3] = biological target: T2, BChE (EC 3.1.1.8, from human serum) (Homo sapiens, UniProt P06276); experiment: biochemical; conditions: for BChE IR (%) inhibition ratio: at 50 μM; for improved BChE inhibitory activity, folds compared with 1: compared with hit 1; for IC50: mean ± SD of three separate experiments
T2 construct: BChE (EC 3.1.1.8, from human serum); purchased Sigma-Aldrich (St. Louis, MO, USA); host or cells: human serum
T2 sequence (P06276 29-602): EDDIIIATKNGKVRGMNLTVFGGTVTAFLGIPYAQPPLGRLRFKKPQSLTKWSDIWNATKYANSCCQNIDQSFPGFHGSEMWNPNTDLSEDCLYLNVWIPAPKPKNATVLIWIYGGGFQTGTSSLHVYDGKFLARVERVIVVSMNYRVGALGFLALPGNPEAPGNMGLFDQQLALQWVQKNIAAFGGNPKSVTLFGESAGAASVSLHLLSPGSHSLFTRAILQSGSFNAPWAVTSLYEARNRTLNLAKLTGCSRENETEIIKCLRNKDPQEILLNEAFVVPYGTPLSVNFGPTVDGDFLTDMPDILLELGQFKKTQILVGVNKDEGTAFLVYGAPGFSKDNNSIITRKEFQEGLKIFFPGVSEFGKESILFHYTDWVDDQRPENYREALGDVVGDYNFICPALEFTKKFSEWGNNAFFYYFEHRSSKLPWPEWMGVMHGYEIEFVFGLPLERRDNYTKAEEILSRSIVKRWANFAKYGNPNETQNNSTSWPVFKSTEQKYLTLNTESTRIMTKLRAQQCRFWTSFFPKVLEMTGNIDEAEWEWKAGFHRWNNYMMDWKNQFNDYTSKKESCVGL
Procedure: (§4) BChE (EC 3.1.1.8, from human serum), AChE (EC […]), butyrylthiocholine (BUC) iodide, and acetylthiocholine (ATC) iodide were purchased from Sigma-Aldrich (St. Louis, MO, USA). Enzyme was dissolved and pre-prepared at 2.0 U/mL. 10 μL of enzyme, 20 μL of 0.01 M 5,5′-dithiobis(2-nitrobenzoic acid), 10 μL of tested compound, and 40 μL of PBS were pre-incubated together for 5 min. Io initiate the reaction, 20 μL of 0.01 M BUC or ATC was added. The activity was determined by measuring the increase in absorbance at 410 nm at 37 °C in 2 min intervals using Tecan Spark multimode microplate reader (Mannedorf, Switzerland). The percentage of inhibition (I) was calculated according to the formula: I = (Ac − Ai)/Ac × 100%, with Ai and Ac representing the change in the absorbance in the presence of an inhibitor and without an inhibitor, respectively.

[4] = biological target: T3, AChE (from human erythrocyte) (Homo sapiens, UniProt P22303); experiment: biochemical; conditions: at 50 μM
T3 construct: AChE (EC 3.1.1.8, from human erythrocyte); purchased Sigma-Aldrich (St. Louis, MO, USA); host or cells: human erythrocyte
T3 sequence (P22303 other isoform, or with tags, fused parts or gaps): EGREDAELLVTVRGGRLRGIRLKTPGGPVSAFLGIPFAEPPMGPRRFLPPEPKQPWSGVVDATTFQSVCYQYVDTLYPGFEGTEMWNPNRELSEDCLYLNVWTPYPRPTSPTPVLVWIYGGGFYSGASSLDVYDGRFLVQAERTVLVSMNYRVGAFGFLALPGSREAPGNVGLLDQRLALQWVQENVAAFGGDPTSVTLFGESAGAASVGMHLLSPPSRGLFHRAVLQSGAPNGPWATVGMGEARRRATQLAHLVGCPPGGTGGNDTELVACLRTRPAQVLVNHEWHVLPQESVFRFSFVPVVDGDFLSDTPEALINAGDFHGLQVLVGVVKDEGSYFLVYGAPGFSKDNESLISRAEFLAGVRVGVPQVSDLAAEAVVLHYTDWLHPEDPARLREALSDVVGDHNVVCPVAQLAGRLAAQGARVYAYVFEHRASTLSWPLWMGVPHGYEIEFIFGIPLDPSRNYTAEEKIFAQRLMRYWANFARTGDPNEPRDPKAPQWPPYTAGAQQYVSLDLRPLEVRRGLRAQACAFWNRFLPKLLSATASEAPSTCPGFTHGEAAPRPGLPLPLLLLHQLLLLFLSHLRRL
Procedure: as §4

[5] = system: Aβ1-42-induced toxicity in SH-SY5Y cells; experiment: Protective activity against Aβ1-42-induced toxicity, MTT method; format: cell-based; conditions: Homo sapiens, SH-SY5Y, 24 h, read-out: cell viability of Aβ1-42-treated SH-SY5Y cells
Procedure: Based on this observation, compound 23 might be a more promising protective agent against Aβ1-42-induced toxicity on the SH-SY5Y cell model.
as §1, §2, §3
SH-SY5Y cells were maintained at 37 °C in a humidified atmosphere containing 5% CO2. Cells were seeded into multi-well plates at a density of 2~2.5 × 10^5 cells/mL in DMEM medium, supplemented with 10% heat-inactivated bovine calf serum (Gibco, South America Origin). Experiments were carried out in 24 h after cells were seeded.
Aβ1–42 were stored at 4 °C until 0.1 mM stock solutions were prepared in phosphate bufer saline (PBS) on the day of application to cultures. Th e compounds were first dissolved with DMSO and then diluted with DMEM medium. After pretreatment with the compounds for 2 h, Aβ1–42 were added to SH-SY5Y cell cultures in 24 h. Assays for cell viability were performed in 24 h after cultured in fresh medium .

[6] = biological target: T4, BChE (Homo sapiens, UniProt P06276); experiment: Kinetic study of BChE inhibition (Lineweaver-Burk); format: biochemical
T4 construct: BChE (EC 3.1.1.8, from human serum); purchased Sigma-Aldrich (St. Louis, MO, USA); host or cells: human serum
T4 sequence (P06276 29-602): as the sequence (P06276 29-602) above
Procedure: To further understand the action mechanism for BChE inhibition of this series of compounds, the kinetic assay was performed with the optimal compound 23 as a model compound. […]. […] The result was confirmed by the subsequent molecular docking study of 23. […].
Kinetic study of BChE inhibition was performed by using Ellman’s method as described in Section 3.3.
Figure 3 Kinetic study of 23 on BChE inhibition. […];

SMILES	cytotoxicity towards SH-SY5Y cells [1]	inhibitory activity against Aβ1-42 aggregation (in words) [2]	inhibition ratio towards Aβ1-42 aggregation [2] [%]	BChE IR (%) inhibition ratio [3] [%]	improved BChE inhibitory activity, folds compared with 1 [3] [fold]	IC50 [3] [nM]	AChE IR (%) inhibition ratio [4] [%]	viability at 5 µM [5] [%]	viability at 10 µM [5] [%]	fold increase in BChE inhibitory potency ([3]; compared with 9)	fold increase in BChE inhibitory potency ([3]; compared with 16) [fold]	Ki ([6]; BChE, read-out: KI value (replot of slope against concentration)) [nM]	type of BChE inhibition ([6]; Lineweaver-Burk plots)
O=C(c1ccc(CN2CCc3ccccc3C2)cc1)N1CCCC1 [Compound 9, (4-((3,4-dihydroisoquinolin-2(1H)-yl)methyl)phenyl)(pyrrolidin-1-yl)methanone]	did not show obvious cytotoxicity; also recorded: non-toxic	dose-dependent manner	45.5 ± 6.2	95.1	9	2680 ± 280	29.1	84.7 ± 1.77	88.8 ± 0.81	–	–	–	–
O=C(Nc1ccccc1Br)c1ccc(CN2CCc3ccccc3C2)cc1 [Compound 23, N-(2-bromophenyl)-4-((3,4-dihydroisoquinolin-2(1H)-yl)methyl)benzamide]	did not show obvious cytotoxicity; also recorded: non-toxic	dose-dependent manner	44.2 ± 3.3	97.9	21	830 ± 80	22.7	91.1 ± 1.25	98 ± 1.7	about 3 fold	~8	520	mixed-type inhibitor
